For test [1], the system named is anti-Chlamydia abzymes. The test can be described thus: Serum abzyme activity in patients taking aspirin (Example 6). The test is classed as in vivo, human.
Test [2] deals with anti-Chlamydia abzymes. Format: biochemical, human. Set-up: key to In-vitro Inhibition: + = inhibition; − = no inhibition.
Test [3] deals with anti-Chlamydia abzymes. Kind of test: Anti-abzyme therapy trial in ischaemic heart disease: serum abzyme activity. Format: in vivo, human.
For test [4], the system named is anti-Chlamydia abzymes. Kind of test: Abzyme activity in angina patients reporting aspirin intake (Example 10). The test is classed as in vivo, human. The note with it: for abzyme activity, + aspirin: individuals.
A further test relates to lesion IgG. Kind of test: LDL peroxidation by lesion IgG with tested antioxidants. Format: biochemical, human.
For a further test, the system named is Chlamydia. The test is classed as biochemical, Chlamydia pneumoniae or Chlamydia Psittaci.
The mark [5] stands for this setting: patient F, Silent Myocardial Ischaemia.
[6] abbreviates: 10 μM of each Me2+-binding agent.
The mark [7] stands for this setting: 10 μM of each Me2+-binding agent, control 24.3.
[8] abbreviates: LDL 480 μg of protein, +0.1 M antioxidant, control 0.49 ± 0.023.

Where “and” joins values, the source holds several entries; their conditions need not be identical. Equal values may be shown once. Where a name gives a salt, the structure may show the parent alone. Read-outs that look alike come from different tables or passages of the source.

In the case of `CC(=O)Oc1ccccc1C(=O)O` [Aspirin, acetylsalicylic acid], the “Level of activity of anti-Chlamydia abzymes, 7 days after starting to take 250 mg of aspirin daily” value in the test with anti-Chlamydia abzymes [1] (individual patients with CHD, before aspirin 45, 100, 45) is “undetectably low level and 20 μM MDA/ml and 0 μM MDA/ml”. Further, in the test with anti-Chlamydia abzymes [1] (one CHD patient, 250 mg aspirin daily, after a week), the “inhibition of the abzyme activity” value is recorded as 5 fold. Further, the “Level of activity of anti-Chlamydia abzymes, 7 days after re-starting to take 250 mg aspirin daily” value in the test on anti-Chlamydia abzymes [1] (setting [5]) is recorded as 20 μM MDA/ml. The “Level of activity of anti-Chlamydia abzymes, after stopping taking aspirin for 7 days” value in the test with anti-Chlamydia abzymes [1] (setting [5]) is 65 μM MDA/ml. In addition, the “Level of activity of anti-Chlamydia abzymes, aspirin intake 250 mg daily” value in the test with anti-Chlamydia abzymes [1] (patient F, Silent Myocardial Ischaemia, regular intake) was found to be 10 μM MDA/ml. For the same compound, the “In-vitro Inhibition” value in the test on anti-Chlamydia abzymes [2] was “+”. Moreover, the “Result (inhibition of anti-Chlamydia abzymes)” value in the test on anti-Chlamydia abzymes [2] (setting [6]) is recorded as “Positive”. The “Lipid oxidising activity of anti-Chlamydia abzymes” value (from here on “Lipid oxidising activity”) in the test with anti-Chlamydia abzymes [2] (setting [7]) amounted to 6.2 μM MDA/ml. In addition, the “Anti-Chlamydia abzyme activity, 60 days after the start of treatment” value with anti-Chlamydia abzymes [3] (Therapy Group D individual IHD patients, aspirin 250 mg daily, before 103, 253) is 63 μM MDA/ml and 103 μM MDA/ml; in the test on anti-Chlamydia abzymes [3] (Therapy Group D mean, before treatment 178), 83.2 μM MDA/ml. For the same compound, the “abzyme activity, + aspirin” value was 5 and 45 and 0 (3×) and 10 in the test with anti-Chlamydia abzymes [4] (stable angina class I); 5 (4×) and 10 (2×) and 0 (4×) and 25 and 22.5 and 3.3 and 16.7 and 30 in the test on anti-Chlamydia abzymes [4] (stable angina class II); 0 (3×) and 45 and 5 and 35 and 15 and 30 and 105 and 20 in the test with anti-Chlamydia abzymes [4] (stable angina class III); 130 and 70 and 0 and 37 and 90 and 100 and 180 with anti-Chlamydia abzymes [4] (unstable angina (IV)). The “individuals positive for abzymes, + aspirin” value in the test on anti-Chlamydia abzymes [4] (stable angina class I, 1/6) came to 17%; with anti-Chlamydia abzymes [4] (stable angina class II, 4/15), 27%; with anti-Chlamydia abzymes [4] (stable angina class III, 6/10) it was 60%; with anti-Chlamydia abzymes [4] (unstable angina (IV), 6/7), 86%. Further, the “abzyme activity, + aspirin, group mean” value in the test with anti-Chlamydia abzymes [4] (stable angina class I, n = 6, without aspirin 30.0) is 10.0; in the test with anti-Chlamydia abzymes [4] (stable angina class II, n = 15, without aspirin 32.2), 9.2; with anti-Chlamydia abzymes [4] (stable angina class III, n = 10, without aspirin 56.0), 25.5; in the test on anti-Chlamydia abzymes [4] (unstable angina (IV), n = 7, without aspirin 119), 86.7.

On to `C[S+](C)[O-]` [DMSO], for which, in the test on lesion IgG (LDL 480 μg of protein, +1% antioxidant, control 0.49 ± 0.023), the “Level of MDA production by 0.82 μg of lesion IgG” value (shortened to “Level of MDA production”) is 0 µM. Besides, the “development of lipid oxidation reaction” value in the test with Chlamydia is recorded as “completely abrogated”.

Consider `O=C(O)CN(CCN(CC(=O)O)CC(=O)O)CCN(CC(=O)O)CC(=O)O` [DTPA], for which, in the test on anti-Chlamydia abzymes [2], the “In-vitro Inhibition” value is “−”. In addition, the “Result (inhibition of anti-Chlamydia abzymes)” value in the test with anti-Chlamydia abzymes [2] (setting [6]) was “Negative”. Further, the “Lipid oxidising activity” value with anti-Chlamydia abzymes [2] (setting [7]) was 45.2 μM MDA/ml.

Take `O=[N+]([O-])OCC(CO[N+](=O)[O-])O[N+](=O)[O-]` [Glyceryl Trinitrate]: the Anti-Abzyme activity is 0 μM MDA/ml with anti-Chlamydia abzymes [2] (drug 4.4 μM, control 21.7); 0 μM MDA/ml in the test on anti-Chlamydia abzymes [2] (drug 22 μM, control 21.7); 0 μM MDA/ml with anti-Chlamydia abzymes [2] (drug 44 μM, control 21.7); 0 μM MDA/ml in the test with anti-Chlamydia abzymes [2] (drug 220 μM, control 21.7).

Consider `O=[N+]([O-])O[C@H]1CO[C@H]2[C@@H]1OC[C@H]2O[N+](=O)[O-]` [Isosorbide Dinitrate], for which the Anti-Abzyme activity in the test on anti-Chlamydia abzymes [2] (drug 42 μM, control 21.7) was found to be 0 μM MDA/ml; in the test with anti-Chlamydia abzymes [2] (drug 211 μM, control 21.7), 0 μM MDA/ml.

For the compound `CCC[C@@H]1C[C@@H](C(=O)N[C@@H]([C@H]2O[C@H](SC)[C@H](O)[C@@H](O)[C@H]2O)[C@@H](C)O)N(C)C1` [Lincomycin Hydrochloride], the Anti-Abzyme activity was found to be 28.5 μM MDA/ml with anti-Chlamydia abzymes [2] (drug 6.5 μM, control 21.7) and 30.3 μM MDA/ml in the test on anti-Chlamydia abzymes [2] (drug 13 μM, control 21.7).

With `CC(C)(S)[C@@H](N)C(=O)O` [Penicillamine], in the test with anti-Chlamydia abzymes [2], the “In-vitro Inhibition” value was “+”. Moreover, in the test on anti-Chlamydia abzymes [2] (setting [6]), the “Result (inhibition of anti-Chlamydia abzymes)” value is reported as “Positive”. Moreover, in the test with anti-Chlamydia abzymes [2] (setting [7]), the “Lipid oxidising activity” value worked out at 0 μM MDA/ml.

As to `O=C(O)c1ccccn1` [Picolinic acid], in the test on anti-Chlamydia abzymes [2], the “In-vitro Inhibition” value is recorded as “+”. The “Result (inhibition of anti-Chlamydia abzymes)” value in the test with anti-Chlamydia abzymes [2] (setting [6]) was “Positive”. Also, the “Lipid oxidising activity” value in the test with anti-Chlamydia abzymes [2] (setting [7]) worked out at 0 μM MDA/ml.

For the compound `CC(C)NCC(O)COc1cccc2ccccc12` (stereo not drawn) [Propranolol Hydrochloride], the Anti-Abzyme activity with anti-Chlamydia abzymes [2] (Hydrochloride) is 21.3 μM MDA/ml and 18.3 μM MDA/ml.

`CCCCCCCCCCCCOS(=O)(=O)[O-].[Na+]` [SDS]: in the test on Chlamydia, the “lipid oxidising reaction in the test system” value (“lipid oxidising reaction” for short) is on record as “no lipid oxidising reaction”.

Consider `N.N.O=S(=O)(O)O` [ammonium sulphate], for which the “lipid oxidising reaction” value in the test with Chlamydia is “no lipid oxidising reaction”.

For `O=C1O[C@H]([C@@H](O)CO)C(O)=C1O` [ascorbic acid], in the test with lesion IgG, the “Level of MDA production” value came out at 0 µM.

On to `O=C(O)c1ccccc1` [benzole acid], for which, in the test on lesion IgG (setting [8]), the “Level of MDA production” value turned out to be 0 µM.

For the compound `C=O` [formalin], the “lipid oxidising reaction” value in the test on Chlamydia is “no lipid oxidising reaction”.

`O=C[O-].[Na+]` [sodium formate]: the “Level of MDA production” value with lesion IgG (setting [8]) is 0 µM.

As for `Cc1c(C)c2c(c(C)c1O)CC[C@@](C)(CCC[C@H](C)CCC[C@H](C)CCCC(C)C)O2` [α-Tocopherol], the “Lipid oxidising activity” value was 15 μM MDA/ml in the test on anti-Chlamydia abzymes [2] (in DMSO, 1 μM, control 61) and 0 μM MDA/ml in the test on anti-Chlamydia abzymes [2] (in DMSO, 10 μM, control 61).

In the case of Heparin, the Anti-Abzyme activity in the test on anti-Chlamydia abzymes [2] (drug 0.1 mg/ml, control 21.7) came out at 19.7 μM MDA/ml.

Take Igepal CA-630: in the test with Chlamydia, the “development of lipid oxidation reaction” value is “completely abrogated” and the “oxidation of the lipids in the bacteria by the extracted abzymes” value is given as “abolished”.

Regarding Nadroparin Calcium, the Anti-Abzyme activity in the test with anti-Chlamydia abzymes [2] (drug 95 UI, control 21.7) is recorded as 20.5 μM MDA/ml; in the test on anti-Chlamydia abzymes [2] (drug 465 UI, control 21.7) it was 12.8 μM MDA/ml.

As for Triton X-100, in the test with Chlamydia, the “development of lipid oxidation reaction” value is recorded as “completely abrogated” and the “oxidation of the lipids in the bacteria by the extracted abzymes” value is listed as “abolished”.

(Values after patent US7419657B2, “Treatment of atherosclerotic disorders” (priority 2001, dated 2008).)
